{
  "source": "patent US20230203043A1",
  "about": "“NOVEL IMIDAZOPYRAZINE DERIVATIVES” (Hoffmann-La Roche Inc., priority 2020, published 2023)",
  "note": "Structures can show the parent of a compound that is named as a salt.",
  "data": [
    {"test_system": "Acinetobacter baumannii ATCC17961", "assay": "Antimicrobial susceptibility testing: 90% growth inhibitory concentration (IC90) determination in Iso-Sensitest broth, OD600 growth", "format": "cell-based", "settings": "Acinetobacter baumannii, ATCC17961, 16 h, read-out: A. baumannii ATCC 17961 IC90 (uM), strain ATCC 17961, OD600 growth over 16 h", "summary_of_the_method": "(§1)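 Growth inhibition is calculated during the logarithmic phase from OD600 readings taken every 20 minutes across 16 h at 35±2° C. Bacteria at ~5×10^(5) CFU/ml face twofold dilution series (e.g. 50 to 0.097 μM final).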", "units": {"IC90": "µM"}, "values": [
      {"smiles": "CCc1cc(Nc2nccn3c(-c4cn(CC(F)F)nc4C(F)(F)F)cnc23)ccc1C(=O)NC1CCCNC1", "note": "(stereo not shown) [Example 563, 4-((3-(1-(2,2-difluoroethyl)-3-(trifluoromethyl)-1H-pyrazol-4-yl)imidazo[1,2-a]pyrazin-8-yl)amino)-2-ethyl-N-(piperidin-3-yl)benzamide formate]", "IC90": 0.575},
      {"smiles": "Cc1cc(Nc2nccn3c(-c4cn(CC#N)nc4C(F)(F)F)cnc23)ccc1C(=O)N1CCN(C(=O)N[C@@H]2CNC[C@H]2O)CC1", "note": "[Example 419, 4-[4-[[3-[1-(cyanomethyl)-3-(trifluoromethyl)pyrazol-4-yl]imidazo[1,2-a]pyrazin-8-yl]amino]-2-methylbenzoyl]-N-[(3R,4R)-4-hydroxypyrrolidin-3-yl]piperazine-1-carboxamide formate]", "IC90": 0.654},
      {"smiles": "CCc1cc(Nc2nccn3c(-c4cn(CC(F)F)nc4C(F)(F)F)cnc23)ccc1C(=O)NCC(=O)NCC1(O)CCNCC1", "note": "[Example 551, 4-[[3-[1-(2,2-difluoroethyl)-3-(trifluoromethyl)pyrazol-4-yl]imidazo[1,2-a]pyrazin-8-yl]amino]-2-ethyl-N-[2-[(4-hydroxy-4-piperidyl)methylamino]-2-oxo-ethyl]benzamide formate]", "IC90": 0.357},
      {"smiles": "CCc1cc(Nc2nccn3c(-c4cn(CC(F)F)nc4C(F)(F)F)cnc23)ccc1C(=O)NCCCNC(=O)[C@@H]1CC[C@H](N)C1", "note": "[Example 543, N-(3-((1R,3S)-3-aminocyclopentane-1-carboxamido)propyl)-4-((3-(1-(2,2-difluoroethyl)-3-(trifluoromethyl)-1H-pyrazol-4-yl)imidazo[1,2-a]pyrazin-8-yl)amino)-2-ethylbenzamide formate]", "IC90": 0.162},
      {"smiles": "N[C@@H]1CC[C@@H](C(=O)N2CCN(C(=O)c3ccc(Nc4nccn5c(-c6cn(CC(F)F)nc6C(F)(F)F)cnc45)cc3Cl)CC2)C1", "note": "[Example 574, (4-((1R,3R)-3-aminocyclopentane-1-carbonyl)piperazin-1-yl)(2-chloro-4-((3-(1-(2,2-difluoroethyl)-3-(trifluoromethyl)-1H-pyrazol-4-yl)imidazo[1,2-a]pyrazin-8-yl)amino)phenyl)methanone formate]", "IC90": 0.242},
      {"smiles": "C[C@@H](NC(=O)c1ccc(Nc2nccn3c(-c4c[nH]nc4C(F)(F)F)cnc23)cc1Cl)C(=O)N1CC[C@H](N)C1", "note": "[Example 94, N-[(2R)-1-[(3S)-3-aminopyrrolidin-1-yl]-1-oxopropan-2-yl]-2-chloro-4-[[3-[3-(trifluoromethyl)-1H-pyrazol-4-yl]imidazo[1,2-a]pyrazin-8-yl]amino]benzamide formate]", "IC90": 1.24},
      {"smiles": "N#CCn1cc(-c2cnc3c(Nc4ccc(C(=O)N5CCN(CC(=O)NCCN)CC5)c(Cl)c4)nccn23)c(C(F)(F)F)n1", "note": "[Example 602, N-(2-aminoethyl)-2-(4-(2-chloro-4-((3-(1-(cyanomethyl)-3-(trifluoromethyl)-1H-pyrazol-4-yl)imidazo[1,2-a]pyrazin-8-yl)amino)benzoyl)piperazin-1-yl)acetamide formate]", "IC90": 0.448},
      {"smiles": "CCc1cc(Nc2nccn3c(-c4cn(CC#N)nc4C(F)(F)F)cnc23)ccc1C(=O)NCC1CC1N", "note": "(stereo not shown) [Example 623, N-((2-aminocyclopropyl)methyl)-4-((3-(1-(cyanomethyl)-3-(trifluoromethyl)-1H-pyrazol-4-yl)imidazo[1,2-a]pyrazin-8-yl)amino)-2-ethylbenzamide formate]", "IC90": 0.161},
      {"smiles": "Cc1cc(Nc2nccn3c(-c4cn(CC#N)nc4C(F)(F)F)cnc23)ccc1C(=O)N[C@H](C)C(=O)N1CCNCC1", "note": "[Example 726, 4-[[3-[1-(cyanomethyl)-3-(trifluoromethyl)pyrazol-4-yl]imidazo[1,2-a]pyrazin-8-yl]amino]-2-methyl-N-[(1R)-1-methyl-2-oxo-2-piperazin-1-yl-ethyl]benzamide formate]", "IC90": 0.463},
      {"smiles": "CN(C)CCNC(=O)CNC(=O)c1ccc(Nc2nccn3c(-c4cn(CC#N)nc4C(F)(F)F)cnc23)cc1Cl", "note": "[Example 693, 2-chloro-4-[[3-[1-(cyanomethyl)-3-(trifluoromethyl)pyrazol-4-yl]imidazo[1,2-a]pyrazin-8-yl]amino]-N-[2-[2-(dimethylamino)ethylamino]-2-oxo-ethyl]benzamide formate]", "IC90": 0.358}
    ]},
    {"test_system": "Acinetobacter baumannii ATCC17961", "assay": "Antimicrobial susceptibility testing: 90% growth inhibitory concentration (IC90) determination in Iso-Sensitest broth, OD600 growth", "format": "cell-based", "settings": "Acinetobacter baumannii, ATCC17961, 16 h, strain ATCC 17961, OD600 growth over 16 h, read-out: A. baumannii ATCC 17961 IC90", "summary_of_the_method": "as §1", "units": {"IC90": "µM"}, "values": [
      {"smiles": "NCC(=O)N1CCN(C(=O)c2ccc(Nc3nccn4c(-c5cn(CC6CC6)nc5C(F)(F)F)cnc34)cc2F)CC1", "note": "[Example 814, 2-amino-1-(4-(4-((3-(1-(cyclopropyl-methyl)-3-(trifluoromethyl)-1H-pyrazol-4-yl)imidazo[1,2-a]pyrazin-8-yl)amino)-2-fluorobenzoyl)piperazin-1-yl)ethan-1-one hydrochloride]", "IC90": 0.14},
      {"smiles": "CNC(=O)c1ccc(Nc2nccn3c(-c4c[nH]nc4C(F)(F)F)cnc23)cc1Cl", "note": "[Example 388, 2-chloro-N-methyl-4-[[3-[3-(trifluoromethyl)-1H-pyrazol-4-yl]imidazo[1,2-a]pyrazin-8-yl]amino]benzamide]", "IC90": 0.337},
      {"smiles": "CCc1cc(Nc2nccn3c(-c4c[nH]nc4C(F)(F)F)cnc23)ccc1C(=O)NCCOCCN1CCOCC1", "note": "[Example 772, 2-ethyl-N-(2-(2-morpholinoethoxy)ethyl)-4-((3-(3-(trifluoromethyl)-1H-pyrazol-4-yl)imidazo[1,2-a]pyrazin-8-yl)amino)benzamide]", "IC90": 0.968},
      {"smiles": "CCNC(=O)c1ccc(Nc2nccn3c(-c4cn(CC#N)nc4C(F)(F)F)cnc23)cc1CC", "note": "[Example 113, 4-[[3-[1-(cyanomethyl)-3-(trifluoromethyl)pyrazol-4-yl]imidazo[1,2-a]pyrazin-8-yl]amino]-N,2-diethylbenzamide]", "IC90": 0.234},
      {"smiles": "CCCn1cc(-c2cnc3c(Nc4ccc(C(=O)NCCOCCN)c(CC)c4)nccn23)c(C(F)(F)F)n1", "note": "[Example 25, N-[2-(2-aminoethoxy)ethyl]-2-ethyl-4-[[3-[1-propyl-3-(trifluoromethyl)pyrazol-4-yl]imidazo[1,2-a]pyrazin-8-yl]amino]benzamide hydrochloride]", "IC90": 0.141},
      {"smiles": "CCc1cc(Nc2nccn3c(-c4c[nH]nc4C(F)F)cnc23)ccc1C(=O)NCCOCCN", "note": "[Example 430, N-[2-(2-aminoethoxy)ethyl]-4-[[3-[3-(difluoromethyl)-1H-pyrazol-4-yl]imidazo[1,2-a]pyrazin-8-yl]amino]-2-ethylbenzamide]", "IC90": 2.14},
      {"smiles": "Cc1cc(Nc2nccn3c(-c4cn(CC(F)F)nc4C(F)(F)F)cnc23)cc(F)c1C(=O)N[C@H](C)CNC(=O)C1CCNCC1", "note": "[Example 705, (R)-N-(2-(4-((3-(1-(2,2-difluoroethyl)-3-(trifluoromethyl)-1H-pyrazol-4-yl)imidazo[1,2-a]pyrazin-8-yl)amino)-2-fluoro-6-methylbenzamido)propyl)piperidine-4-carboxamide]", "IC90": 0.391},
      {"smiles": "C#CCn1cc(-c2cnc3c(Nc4ccc(C(=O)N5CCN(C(=O)C6CCNCC6)CC5)c(CC)c4)nccn23)c(C(F)(F)F)n1", "note": "[Example 5, [2-ethyl-4-[[3-[1-prop-2-ynyl-3-(trifluoromethyl)pyrazol-4-yl]imidazo[1,2-a]pyrazin-8-yl]amino]phenyl]-[4-(piperidine-4-carbonyl)piperazin-1-yl]methanone]", "IC90": 0.262},
      {"smiles": "CCc1cc(Nc2nccn3c(-c4cn(CC#N)nc4C(F)(F)F)cnc23)ccc1C(=O)N[C@H](C)CN", "note": "[Example 109, N-[(2R)-1-aminopropan-2-yl]-4-[[3-[1-(cyanomethyl)-3-(trifluoromethyl)pyrazol-4-yl]imidazo[1,2-a]pyrazin-8-yl]amino]-2-ethylbenzamide]", "IC90": 0.333},
      {"smiles": "CCNC(=O)c1ccc(Nc2nccn3c(-c4cn(CCF)nc4C(F)(F)F)cnc23)cc1CC", "note": "[Example 114, N,2-diethyl-4-[[3-[1-(2-fluoroethyl)-3-(trifluoromethyl)pyrazol-4-yl]imidazo[1,2-a]pyrazin-8-yl]amino]benzamide]", "IC90": 0.329},
      {"smiles": "O=C(c1ccc(Nc2nccn3c(-c4c[nH]nc4C(F)(F)F)cnc23)cc1Cl)N1CC2(CNC2)C1", "note": "[Example 111, [2-chloro-4-[[3-[3-(trifluoromethyl)-1H-pyrazol-4-yl]imidazo[1,2-a]pyrazin-8-yl]amino]phenyl]-(2,6-diazaspiro[3.3]heptan-2-yl)methanone]", "IC90": 0.997},
      {"smiles": "Cc1cc(Nc2nccn3c(-c4cn(CC(F)F)nc4C(F)(F)F)cnc23)cc(F)c1C(=O)N1CCN(C(=O)C2CCNCC2)CC1", "note": "[Example 707, (4-(4-((3-(1-(2,2-difluoroethyl)-3-(trifluoromethyl)-1H-pyrazol-4-yl)imidazo[1,2-a]pyrazin-8-yl)amino)-2-fluoro-6-methylbenzoyl)piperazin-1-yl)(piperidin-4-yl) methanone]", "IC90": 0.395},
      {"smiles": "CCc1cc(Nc2nccn3c(-c4cn(Cc5cc[nH]n5)nc4C(F)(F)F)cnc23)ccc1C(=O)NC", "note": "[Example 15, 2-ethyl-N-methyl-4-[[3-[1-(1H-pyrazol-3-ylmethyl)-3-(trifluoromethyl)pyrazol-4-yl]imidazo[1,2-a]pyrazin-8-yl]amino]benzamide]", "IC90": 0.251},
      {"smiles": "O=C(NC1CNC1)N1CCN(C(=O)c2ccc(Nc3nccn4c(-c5cn(CC(F)F)nc5C(F)(F)F)cnc34)cc2Cl)CC1", "note": "[Example 581, N-(azetidin-3-yl)-4-(2-chloro-4-((3-(1-(2,2-difluoroethyl)-3-(trifluoromethyl)-1H-pyrazol-4-yl)imidazo[1,2-a]pyrazin-8-yl)amino)benzoyl) piperazine-1-carboxamide formate]", "IC90": 0.354}
    ]},
    {"test_system": "Acinetobacter baumannii ATCC17961", "assay": "Antimicrobial susceptibility testing: 90% growth inhibitory concentration (IC90) determination in Iso-Sensitest broth, OD600 growth", "format": "cell-based", "settings": "strain ATCC 17961, OD600 growth over 16 h, read-out: A. baumannii ATCC 17961 IC90", "summary_of_the_method": "as §1", "units": {"IC90": "µM"}, "values": [
      {"smiles": "CCc1cc(Nc2nccn3c(-c4c(C(F)(F)F)n[nH]c4C)cnc23)ccc1C(=O)NCCOCCN", "note": "[Example 24, N-[2-(2-aminoethoxy)ethyl]-2-ethyl-4-[[3-[5-methyl-3-(trifluoromethyl)-1H-pyrazol-4-yl]imidazo[1,2-a]pyrazin-8-yl]amino] benzamide formate]", "IC90": 0.523}
    ]}
  ]
}
